In patent publication US20240150377A1, “MODULATORS OF CYSTIC FIBROSIS TRANSMEMBRANE CONDUCTANCE REGULATOR” (VERTEX PHARMACEUTICALS INCORPORATED, priority 2020, published 2024):

Molecular target: T1, CFTR (Homo sapiens, UniProt P13569, DEL508-508)
T1 construct: endogenous in cells; host or cells: primary human bronchial epithelial cells from CF subjects (F508del/MF-HBE), differentiated at air-liquid interface
Experiment: HBE assay: Ussing chamber assay of CFTR-mediated short-circuit currents
Type: cell-based
Conditions: Table 13; for EC50: read-out: HBE EC50; for Emax: read-out: HBE Max Activity (%); for activation at 10 µM: read-out: HBE Activity at 10 μM (%)
How it was run: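 CFTR-mediated Isc (μA/cm²) equals the peak response to apical 20 μM forskolin minus the residual after a 20 μM each BPO/GlyH-101/CFTR inhibitor 172 cocktail, recorded in Ussing chambers at Vhold 0 mV, 37 °C, pH 7.4, with 30 μM apical amiloride. Cells were F508del/MF HBE cultures preincubated 18-24 h with corrector (concentration range or 10 μM) plus 1 μM ivacaftor in 20% human serum.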

T1 sequence (P13569 with tags, fused parts or gaps DEL508-508): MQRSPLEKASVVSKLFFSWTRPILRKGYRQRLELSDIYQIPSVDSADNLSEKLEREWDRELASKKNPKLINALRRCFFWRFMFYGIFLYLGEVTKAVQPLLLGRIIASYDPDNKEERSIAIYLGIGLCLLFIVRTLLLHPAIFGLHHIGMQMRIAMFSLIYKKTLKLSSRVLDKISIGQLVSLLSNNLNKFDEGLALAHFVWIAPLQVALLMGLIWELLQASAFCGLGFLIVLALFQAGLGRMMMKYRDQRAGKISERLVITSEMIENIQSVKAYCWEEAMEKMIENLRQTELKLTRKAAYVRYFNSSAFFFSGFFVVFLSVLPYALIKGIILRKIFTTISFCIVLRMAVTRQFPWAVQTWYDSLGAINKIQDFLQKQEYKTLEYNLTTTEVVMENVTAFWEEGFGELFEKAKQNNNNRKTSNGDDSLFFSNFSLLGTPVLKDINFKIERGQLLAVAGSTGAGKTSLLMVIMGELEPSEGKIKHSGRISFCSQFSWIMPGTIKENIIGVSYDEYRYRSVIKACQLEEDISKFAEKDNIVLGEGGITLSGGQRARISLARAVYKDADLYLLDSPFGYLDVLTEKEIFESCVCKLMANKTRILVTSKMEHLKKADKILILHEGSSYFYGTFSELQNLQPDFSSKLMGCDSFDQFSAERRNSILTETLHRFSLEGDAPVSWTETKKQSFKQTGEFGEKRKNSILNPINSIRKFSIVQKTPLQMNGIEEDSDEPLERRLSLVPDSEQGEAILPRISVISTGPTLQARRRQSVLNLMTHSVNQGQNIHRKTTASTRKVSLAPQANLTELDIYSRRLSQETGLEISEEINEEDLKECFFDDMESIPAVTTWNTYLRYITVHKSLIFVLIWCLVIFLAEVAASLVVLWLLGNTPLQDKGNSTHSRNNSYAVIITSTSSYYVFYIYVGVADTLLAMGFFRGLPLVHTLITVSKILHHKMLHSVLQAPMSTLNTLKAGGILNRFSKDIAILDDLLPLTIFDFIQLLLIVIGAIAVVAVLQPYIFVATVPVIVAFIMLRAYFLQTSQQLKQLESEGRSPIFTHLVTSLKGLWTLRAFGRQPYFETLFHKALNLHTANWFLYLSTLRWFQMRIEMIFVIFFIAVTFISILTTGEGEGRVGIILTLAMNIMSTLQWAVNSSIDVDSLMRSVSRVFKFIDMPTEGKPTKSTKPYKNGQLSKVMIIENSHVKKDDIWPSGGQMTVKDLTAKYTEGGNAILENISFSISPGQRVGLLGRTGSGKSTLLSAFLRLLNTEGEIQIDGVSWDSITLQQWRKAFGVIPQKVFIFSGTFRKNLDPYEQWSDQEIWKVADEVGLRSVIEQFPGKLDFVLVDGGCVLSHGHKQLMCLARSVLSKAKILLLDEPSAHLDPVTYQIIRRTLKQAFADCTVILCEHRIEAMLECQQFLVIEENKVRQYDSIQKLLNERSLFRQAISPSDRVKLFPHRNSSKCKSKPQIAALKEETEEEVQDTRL

Structure (SMILES) | EC50 [µM] | Emax [%] | activation at 10 µM [%]
Cc1cc(OC(C)C)cnc1CN1C(=O)c2cccc(c2)S(=O)(=O)Nc2nc(cc(-c3c(C)cccc3C)n2)OC[C@H]1CC(C)(C)C [Compound 1116] | < 1 | > 60 | 
COc1cc(OC(C)C)cnc1CN1C(=O)c2cccc(c2)S(=O)(=O)Nc2nc(cc(-c3c(C)cccc3C)n2)OC[C@H]1CC(C)(C)C [Compound 1117] | < 1 | > 60 | 
Cc1cccc(C)c1-c1cc2nc(n1)NS(=O)(=O)c1cccc(c1)C(=O)N(Cc1ncc(N3CCC(C)(C)C3)cc1C(F)(F)F)[C@H](CC(C)(C)C)CO2 [Compound 1118] | < 1 | > 60 | 
Cc1cccc(C)c1-c1cc2nc(n1)NS(=O)(=O)c1cccc(c1)C(=O)N(Cc1ncc(Br)cc1C(F)(F)F)[C@H](CC(C)(C)C)CO2 [Compound 1119] |  |  | > 600
Cc1cccc(C)c1-c1cc2nc(n1)NS(=O)(=O)c1cccc(c1)C(=O)N(Cc1ncc(OC(C)C)cn1)[C@H](CC1(C(F)(F)F)CC1)CO2 [Compound 1120] | < 1 | > 60 | 
Cc1cccc(C)c1-c1cc2nc(n1)NS(=O)(=O)c1cccc(c1)C(=O)N(Cc1ncc(OC(C)C)cn1)[C@H](CC(C)(C)C(F)(F)F)CO2 [Compound 1121] | < 1 | > 60 | 
Cc1cccc(C)c1-c1cc2nc(n1)NS(=O)(=O)c1cccc(c1)C(=O)N(Cc1cccc(N3CCCC3C(C)(C)O)n1)[C@H](CC(C)(C)C)CO2 (stereo partly shown) [Compound 1123] |  |  | > 600
Cc1cccc(C)c1-c1cc2nc(n1)NS(=O)(=O)c1cccc(c1)C(=O)N(Cc1nc3c(ccn3C(C)C)cc1F)[C@H](CC(C)(C)C)CO2 [Compound 1124] | < 1 | > 60 | 
Cc1cccc(C)c1-c1cc2nc(n1)NS(=O)(=O)c1cccc(n1)C(=O)N(Cc1ccc(N(C)CC(C)(C)C)cn1)[C@H](CC(C)(C)C)CO2 [Compound 1125] | 1 to 3 | > 60 | 
Cc1cccc(C)c1-c1cc2nc(n1)NS(=O)(=O)c1cccc(n1)C(=O)N(Cc1cncc(N(C)CC(C)(C)C)n1)[C@H](CC(C)(C)C)CO2 [Compound 1126] | < 1 | > 60 | 
Cc1cccc(C)c1-c1cc2nc(n1)NS(=O)(=O)c1cccc(n1)C(=O)N(Cc1cccc(N3CCCC3C)n1)[C@H](CC(C)(C)C)CO2 (stereo partly shown) [Compound 1127] | < 1 | > 60 | 
Cc1cccc(C)c1-c1cc2nc(n1)NS(=O)(=O)c1cccc(n1)C(=O)N(Cc1ncc(OC(C)C)cn1)[C@H](CC(C)(C)C)CO2 [Compound 1128] | < 1 | > 60 | 
Cc1cccc(C)c1-c1cc2nc(n1)NS(=O)(=O)c1cccc(c1)C(=O)N(Cc1ncc(OC3CC3)cn1)[C@H](CC(C)(C)C)CO2 [Compound 1129] | < 1 | > 60 | 
Cc1cccc(C)c1-c1cc2nc(n1)NS(=O)(=O)c1cccc(c1)C(=O)N(Cc1nc(C3CCC3)no1)[C@H](CC(C)(C)C)CO2 [Compound 1130] |  |  | > 600
Cc1cccc(C)c1-c1cc2nc(n1)NS(=O)(=O)c1cccc(c1)C(=O)N(Cc1nc(C(C)(C)C)no1)[C@H](CC(C)(C)C)CO2 [Compound 1131] |  |  | > 600
Cc1cccc(C)c1-c1cc2nc(n1)NS(=O)(=O)c1cccc(c1)C(=O)N(Cc1nccc(NC(C)C)c1F)[C@H](CC(C)(C)C)CO2 [Compound 1132] | < 1 | > 60 | 
Cc1cc(N2CCC(C)(C)C2)cnc1CN1C(=O)c2cccc(c2)S(=O)(=O)Nc2nc(cc(-c3c(C)cccc3C)n2)OC[C@H]1CC(C)(C)C [Compound 1135] | < 1 | > 60 | 
COCCCN(c1cccc(CN2C(=O)c3cccc(c3)S(=O)(=O)Nc3nc(cc(-c4c(C)cccc4C)n3)OC[C@H]2CC(C)(C)C)n1)C(C)C [Compound 1136] | < 1 | > 60 | 

Structure (SMILES) | EC50 [µM] | Emax [%] | activation at 10 µM [%]
CCCCN(c1cccc(CN2C(=O)c3cccc(c3)S(=O)(=O)Nc3nc(cc(-c4c(C)cccc4C)n3)OC[C@H]2CC(C)(C)C)n1)C(C)C [Compound 1137] | < 1 | > 60 | 
Cc1cccc(C)c1-c1cc2nc(n1)NS(=O)(=O)c1cccc(c1)C(=O)N(Cc1cccc(C(=O)N3CCC(C)(C)C3)n1)[C@H](CC(C)(C)C)CO2 [Compound 1138] | < 1 | > 60 | 
Cc1cccc(C)c1-c1cc2nc(n1)NS(=O)(=O)c1cccc(c1)C(=O)N(Cc1ncc(N3CCC(C)(C)CC3)cc1C(F)(F)F)[C@H](CC(C)(C)C)CO2 [Compound 1139] | 1 to 3 | > 60 | 
Cc1ccc(N(C)C2CC3(CC3)C2)nc1CN1C(=O)c2cccc(c2)S(=O)(=O)Nc2nc(cc(-c3c(C)cccc3C)n2)OC[C@H]1CC(C)(C)C [Compound 1140] | < 1 | > 60 | 
Cc1cccc(C)c1-c1cc2nc(n1)NS(=O)(=O)c1cccc(n1)C(=O)N(Cc1ncc(N3CCC(C)(C)C3=O)cn1)[C@H](CC(C)(C)C)CO2 [Compound 1141] | < 1 | > 60 | 
COCCN(c1cccc(CN2C(=O)c3cccc(n3)S(=O)(=O)Nc3nc(cc(-c4c(C)cccc4C)n3)OC[C@H]2CC(C)(C)C)n1)C(C)C [Compound 1142] | 1 to 3 | > 60 | 
Cc1cccc(C)c1-c1cc2nc(n1)NS(=O)(=O)c1cccc(n1)C(=O)N(Cc1cccc(N(C)C3CC4(CC4)C3)n1)[C@H](CC(C)(C)C)CO2 [Compound 1143] | < 1 | > 60 | 
Cc1cccc(C)c1-c1cc2nc(n1)NS(=O)(=O)c1cccc(n1)C(=O)N(Cc1cccc(NCC(C)(C)C)n1)[C@H](CC(C)(C)C)CO2 [Compound 1144] | < 1 | > 60 | 
Cc1cccc(C)c1-c1cc2nc(n1)NS(=O)(=O)c1cccc(c1)C(=O)N(Cc1ncc(N3CC(C)(C)OC(C)(C)C3)cn1)[C@H](CC(C)(C)C)CO2 [Compound 1145] | < 1 | > 60 | 
Cc1cccc(C)c1-c1cc2nc(n1)NS(=O)(=O)c1cccc(c1)C(=O)N(Cc1ncc(N3CCOC4(CCC4)C3)cn1)[C@H](CC(C)(C)C)CO2 [Compound 1146] | < 1 | > 60 | 
Cc1cccc(C)c1-c1cc2nc(n1)NS(=O)(=O)c1cccc(c1)C(=O)N(Cc1ncc(N3CCSCC3)cn1)[C@H](CC(C)(C)C)CO2 [Compound 1147] | < 1 | > 60 | 
Cc1cccc(C)c1-c1cc2nc(n1)NS(=O)(=O)c1cccc(c1)C(=O)N(Cc1ncc(N3CCOC4(CC4)C3)cn1)[C@H](CC(C)(C)C)CO2 [Compound 1148] | < 1 | > 60 | 
Cc1cccc(C)c1-c1cc2nc(n1)NS(=O)(=O)c1cccc(c1)C(=O)N(Cc1ccc([C@@H](O)CO)cn1)[C@H](CC(C)(C)C)CO2 [Compound 1150] | < 1 |  | 
Cc1cccc(C)c1-c1cc2nc(n1)NS(=O)(=O)c1cccc(c1)C(=O)N(Cc1ccc([C@@H](O)CO)cn1)[C@H](CC(C)(C)C)CO2 [Compound 1151] | 1 to 3 | > 60 | 
Cc1cccc(C)c1-c1cc2nc(n1)NS(=O)(=O)c1cccc(c1)C(=O)N(Cc1ncc([C@@H](O)CO)cn1)[C@H](CC(C)(C)C)CO2 [Compound 1152] | < 1 |  | 
Cc1cccc(C)c1-c1cc2nc(n1)NS(=O)(=O)c1cccc(c1)C(=O)N(Cc1ncc([C@@H](O)CO)cn1)[C@H](CC(C)(C)C)CO2 [Compound 1153] | 1 to 3 | > 60 | 
Cc1cccc(C)c1-c1cc2nc(n1)NS(=O)(=O)c1cccc(c1)C(=O)N(Cc1ccc3c(n1)N1CCOCC1C(C)C3)[C@H](CC(C)(C)C)CO2 (stereo partly shown) [Compound 1154] | < 1 | > 60 | 
